According to patent US4107424A, “1-N-[(S)-α-hydroxy-ω-aminoacyl] derivatives of 3',4'-dideoxykanamycin B and 3'-deoxykanamycin B antibiotics” (Zaidan Hojin Biseibutsu Kagaku Kenkyu Kai, priority 1972, dated 1978):
Values after ≈ are worked out from the molar mass of the structure shown. Like-named read-outs stand apart in the source and are kept apart here.

Tests used:
[1] = test system: Escherichia coli K-12 R-5; assay: Minimal inhibitory concentration, agar dilution streak method; assay type: cell-based; details: K12R5, nutrient agar, 37° C, 18 hours
Description: (§1) [α]D^22 + 38°, (c 0.85, water).
(§2) *Agar Agar dilution streak method (nutrient agar, 37° C, 18 hours)
(§3) *Agar dilution streak method (nutrient agar, 37° C, 18 hours).

Escherichia coli NIHJ = assay: as above; assay type: cell-based; details: nutrient agar, 37° C, 18 hours
Description: as §1, §2, §3

[2] = test system: Pseudomonas aeruginosa 99; assay: as above; assay type: cell-based; details: nutrient agar, 37° C, 18 hours
Description: as §1, §2, §3

Salmonella typhosa T-63 = assay: as above; assay type: cell-based; details: Salmonella enterica, nutrient agar, 37° C, 18 hours
Description: as §1, §2, §3

Sarcina lutea PCI 1001 = assay: as above; assay type: cell-based; details: Micrococcus luteus, PCI1001, 18 h, read-out: Minimal inhibitory concentration
Description: as §1, §2, §3

[3] = test system: Escherichia coli K-12 JR 66/W 677; assay: as above; assay type: cell-based; details: Escherichia coli, 18 h
Description: as §2, §3

[4] = test system: Escherichia coli K-12 LA 290 R 55; assay: as above; assay type: cell-based; details: 18 h
Description: as §2, §3

[5] = test system: Escherichia coli K-12 LA 290 R 56; assay: as above; assay type: cell-based; details: 18 h
Description: as §2, §3

[6] = test system: Escherichia coli K-12 LA 290 R 64; assay: as above; assay type: cell-based; details: nutrient agar, 37° C, 18 hours
Description: as §2, §3

[7] = test system: Escherichia coli K-12 ML 1410 R 81; assay: as above; assay type: cell-based; details: 18 h
Description: as §2, §3

[8] = test system: Escherichia coli K-12 ML 1410; assay: as above; assay type: cell-based; details: K12ML1410, nutrient agar, 37° C, 18 hours
Description: as §2, §3

[9] = test system: Escherichia coli K-12 ML 1629; assay: as above; assay type: cell-based; details: K12ML1629, nutrient agar, 37° C, 18 hours
Description: as §2, §3

[10] = test system: Escherichia coli K-12 ML 1630; assay: as above; assay type: cell-based; details: K12ML1630, nutrient agar, 37° C, 18 hours
Description: as §2, §3

[11] = test system: Escherichia coli K-12 W 677; assay: as above; assay type: cell-based; details: K12W677, nutrient agar, 37° C, 18 hours
Description: as §2, §3

Escherichia coli K-12 = assay: as above; assay type: cell-based; details: K12, nutrient agar, 37° C, 18 hours
Description: as §2, §3

[12] = test system: Klebsiella pneumoniae type 22 #3038; assay: as above; assay type: cell-based; details: Klebsiella pneumoniae; nutrient agar, 37° C, 18 hours
Description: as §2, §3

[13] = test system: Pseudomonas aeruginosa A 3; assay: as above; assay type: cell-based; details: A3, nutrient agar, 37° C, 18 hours
Description: as §2, §3

[14] = test system: Pseudomonas aeruginosa GN 315; assay: as above; assay type: cell-based; details: GN315, nutrient agar, 37° C, 18 hours, read-out: Minimal inhibitory concentration
Description: as §2, §3

[15] = test system: Pseudomonas aeruginosa No.12; assay: as above; assay type: cell-based; details: nutrient agar, 37° C, 18 hours
Description: as §2, §3

[16] = test system: Pseudomonas aeruginosa TI-13; assay: as above; assay type: cell-based; details: TI13, nutrient agar, 37° C, 18 hours
Description: as §2, §3

[17] = test system: Staphylococcus aureus FDA 209P; assay: as above; assay type: cell-based; details: FDA209P, nutrient agar, 37° C, 18 hours
Description: as §2, §3

[18] = test system: Mycobacterium smegmatis ATCC 607; assay: as above; assay type: cell-based; details: Mycolicibacterium smegmatis, ATCC607; nutrient agar, 37° C, 18 hours; read-out: Minimum inhibitory concentrations
[19] = test system: Staphylococcus aureus Smith; assay: Minimum inhibitory concentration, serial dilution method; assay type: cell-based; details: nutrient agar, 37° C, 18 hours, read-out: Minimum inhibitory concentrations
[20] = test system: Staphylococcus aureus Terajima; assay: as above; assay type: cell-based; details: nutrient agar, 37° C, 18 hours, read-out: Minimum inhibitory concentrations
Bacillus anthracis = assay: microbe, parasite or virus in culture; assay type: cell-based; details: 18 h, read-out: Minimum inhibitory concentrations
[21] = test system: Bacillus subtilis PCI 219; assay: Minimum inhibitory concentration, serial dilution method; assay type: cell-based; details: PCI219, nutrient agar, 37° C, 18 hours, read-out: Minimum inhibitory concentrations
[22] = test system: Bacillus cereus ATCC 10702; assay: as above; assay type: cell-based; details: ATCC10702, nutrient agar, 37° C, 18 hours, read-out: Minimum inhibitory concentrations
[23] = test system: Corynebacterium bovis 1810; assay: as above; assay type: cell-based; details: Corynebacterium bovis, 1810; nutrient agar, 37° C, 18 hours; read-out: Minimum inhibitory concentrations
[24] = test system: Shigella dysenteriae JS 11910; assay: as above; assay type: cell-based; details: JS11910, 18 h, read-out: Minimum inhibitory concentrations
[25] = test system: Shigella flexneri 4b JS 11811; assay: as above; assay type: cell-based; details: 4BJS11811, nutrient agar, 37° C, 18 hours, read-out: Minimum inhibitory concentrations
Shigella sonnei JS 11746 = assay: as above; assay type: cell-based; details: JS11746, nutrient agar, 37° C, 18 hours, read-out: Minimum inhibitory concentrations
[26] = test system: Salmonella enteritidis 1891; assay: as above; assay type: cell-based; details: Salmonella enterica, nutrient agar, 37° C, 18 hours, read-out: Minimum inhibitory concentrations
Proetus vulgaris OX 19 = assay: as above; assay type: cell-based; details: nutrient agar, 37° C, 18 hours; read-out: Minimum inhibitory concentrations
[27] = test system: Klebsiella pneumoniae PCI 1602; assay: as above; assay type: cell-based; details: PCI1602, nutrient agar, 37° C, 18 hours, read-out: Minimum inhibitory concentrations
[28] = test system: gram-positive and gram-negative bacteria; assay: Antibacterial activity (in words); assay type: cell-based; details: various gram-positive and gram-negative bacteria, including resistant strains
Description: as §1

in vivo = details: mouse, iv
mice = assay: Acute intravenous toxicity (LD50) in mice; details: in words
[29] = test system: kanamycin-resistant strains; details: strains producing 3'-hydroxyl phosphorylating enzyme; cited from earlier work
nucleotidyl-transferase = details: adenylylation of 2"-hydroxyl group with ATP; cited from earlier work
[30] = read-out: Minimal inhibitory concentration
[31] = read-out: minimum inhibitory concentrations
[32] = drug-resistant strain, read-out: minimum inhibitory concentrations

## NCC[C@H](O)C(=O)N[C@@H]1C[C@H](N)[C@@H](O[C@H]2O[C@H](CN)[C@@H](O)[C@H](O)[C@H]2N)[C@H](O)[C@H]1O[C@H]1O[C@H](CO)[C@@H](O)[C@H](N)[C@H]1O [AHB-kanamycin B, 1-N-[(S)-4-amino-2-hydroxybutyryl]-kanamycin B]
[1]
  MIC: 0.78 µg/mL (≈ 1.33 µM)
Escherichia coli NIHJ
  MIC: 0.78 µg/mL (≈ 1.33 µM)
[2]; [30]
  MIC: 25 µg/mL (≈ 42.8 µM)
Salmonella typhosa T-63
  MIC: 0.39 µg/mL (≈ 0.667 µM)
Sarcina lutea PCI 1001
  MIC: 3.13 µg/mL (≈ 5.35 µM)
[3]; [30]
  MIC: 3.12 µg/mL (≈ 5.34 µM)
[4]; [30]
  MIC: 1.56 µg/mL (≈ 2.67 µM)
[5]; [30]
  MIC: 0.39 µg/mL (≈ 0.667 µM)
[6]; [30]
  MIC: 0.39 µg/mL (≈ 0.667 µM)
[7]; [30]
  MIC: 1.56 µg/mL (≈ 2.67 µM)
[8]; [30]
  MIC: 3.13 µg/mL (≈ 5.35 µM)
[9]; [30]
  MIC: 1.56 µg/mL (≈ 2.67 µM)
[10]; [30]
  MIC: 1.56 µg/mL (≈ 2.67 µM)
[11]; [30]
  MIC: 0.39 µg/mL (≈ 0.667 µM)
Escherichia coli K-12; [30]
  MIC: 0.78 µg/mL (≈ 1.33 µM)
[12]
  MIC: 6.25 µg/mL (≈ 10.7 µM)
[13]; [30]
  MIC: 6.25 µg/mL (≈ 10.7 µM)
[14]
  MIC: 50 µg/mL (≈ 85.5 µM)
[15]; [30]
  MIC: 6.25 µg/mL (≈ 10.7 µM)
[16]; [30]
  MIC: 6.25 µg/mL (≈ 10.7 µM)
[17]; [30]
  MIC: 0.78 µg/mL (≈ 1.33 µM)
[18]
  MIC: 0.78 µg/mL (≈ 1.33 µM)
[19]
  MIC: < 0.2 µg/mL
[20]
  MIC: 0.2 µg/mL (≈ 0.342 µM)
Bacillus anthracis
  MIC: < 0.2 µg/mL
[21]
  MIC: < 0.2 µg/mL
[22]
  MIC: 1.56 µg/mL (≈ 2.67 µM)
[23]
  MIC: 0.39 µg/mL (≈ 0.667 µM)
[24]
  MIC: 3.12 µg/mL (≈ 5.34 µM)
[25]
  MIC: 3.12 µg/mL (≈ 5.34 µM)
Shigella sonnei JS 11746
  MIC: 1.56 µg/mL (≈ 2.67 µM)
[26]
  MIC: 3.12 µg/mL (≈ 5.34 µM)
Proetus vulgaris OX 19
  MIC: 1.56 µg/mL (≈ 2.67 µM)
[27]
  MIC: 0.39 µg/mL (≈ 0.667 µM)
[28]
  antibacterial activity: high antibacterial activity not only against various gram-positive and gram-negative bacteria which are sensitive to kanamycins, but also against the drug-resistant strains of Escherichia coli and Pseudomonas aeruginosa
In vivo
  LD50: > 100 mg/kg
mice
  toxicity: low toxicity to animals and men

## NC[C@@H]1CC[C@@H](N)[C@@H](O[C@H]2[C@H](O)[C@@H](O[C@H]3O[C@H](CO)[C@@H](O)[C@H](N)[C@H]3O)[C@H](N)C[C@@H]2N)O1 [DKB, 3',4'-dideoxykanamycin B]
[2]; [31]
  MIC: 12.5 µg/mL (≈ 27.7 µM)
[3]; [31]
  MIC: 100 µg/mL (≈ 221 µM)
[4]; [31]
  MIC: > 100 µg/mL
[5]; [31]
  MIC: 25 µg/mL (≈ 55.4 µM)
[6]; [31]
  MIC: 25 µg/mL (≈ 55.4 µM)
[7]; [31]
  MIC: 3.12 µg/mL (≈ 6.91 µM)
[8]; [31]
  MIC: 1.56 µg/mL (≈ 3.45 µM)
[9]; [32]
  MIC: 3.12 µg/mL (≈ 6.91 µM)
[10]; [31]
  MIC: 3.12 µg/mL (≈ 6.91 µM)
[11]; [31]
  MIC: 1.56 µg/mL (≈ 3.45 µM)
Escherichia coli K-12; [31]
  MIC: 1.56 µg/mL (≈ 3.45 µM)
[13]; [31]
  MIC: 3.12 µg/mL (≈ 6.91 µM)
[15]; [31]
  MIC: 3.12 µg/mL (≈ 6.91 µM)
[16]; [31]
  MIC: 3.12 µg/mL (≈ 6.91 µM)
[17]; [31]
  MIC: 1.56 µg/mL (≈ 3.45 µM)
[29]
  activity against kanamycin-resistant strains: actually effective
nucleotidyl-transferase
  inactivation by nucleotidyl-transferase: inactivate

## NC[C@H]1O[C@H](O[C@H]2[C@H](O)[C@@H](O[C@H]3O[C@H](CO)[C@@H](O)[C@H](N)[C@H]3O)[C@H](N)C[C@@H]2N)[C@H](O)[C@@H](O)[C@@H]1O [Kanamycin, kanamycin]
[2]; [31]
  MIC: > 100 µg/mL
[3]; [31]
  MIC: > 100 µg/mL
[4]; [31]
  MIC: 100 µg/mL (≈ 206 µM)
[5]; [31]
  MIC: 12.5 µg/mL (≈ 25.8 µM)
[6]; [31]
  MIC: 12.5 µg/mL (≈ 25.8 µM)
[7]; [31]
  MIC: > 100 µg/mL
[8]; [31]
  MIC: 1.56 µg/mL (≈ 3.22 µM)
[9]; [32]
  MIC: > 100 µg/mL
[10]; [31]
  MIC: > 100 µg/mL
[11]; [31]
  MIC: 1.56 µg/mL (≈ 3.22 µM)
Escherichia coli K-12; [31]
  MIC: 0.78 µg/mL (≈ 1.61 µM)
[13]; [31]
  MIC: > 100 µg/mL
[15]; [31]
  MIC: 50 µg/mL (≈ 103 µM)
[16]; [31]
  MIC: > 100 µg/mL
[17]; [31]
  MIC: 3.12 µg/mL (≈ 6.44 µM)
nucleotidyl-transferase
  inactivation by nucleotidyl-transferase: inactivate
